PubChem BioAssay (NCI)
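The concentration for 50% growth inhibition is given as GI50. TGI marks complete inhibition of growth.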

Tests used:
Test in all cases: NCI-60 cell line screen, 384-well format
[1] = tested on: SF-539 CNS
[2] = tested on: SK-MEL-28 melanoma
[3] = tested on: A549 NSCLC
[4] = tested on: NCI-H460 NSCLC
[5] = tested on: DU-145 prostate
[6] = tested on: HCC-2998 colon
[7] = tested on: LOX IMVI melanoma
[8] = tested on: SR leukemia
[9] = tested on: SF-268 CNS
[10] = tested on: COLO 205 colon
[11] = tested on: BT-549 breast
[12] = tested on: RPMI-8226 leukemia
[13] = tested on: MDA-MB-468 breast
[14] = tested on: ACHN renal
[15] = tested on: SNB-75 CNS
[16] = tested on: OVCAR-8 ovarian
[17] = tested on: UACC-62 melanoma
[18] = tested on: CAKI-1 renal
[19] = tested on: T-47D breast
[20] = tested on: NCI-H226 lung
[21] = tested on: SK-MEL-5 melanoma
[22] = tested on: NCI/ADR-RES ovarian
[23] = tested on: MDA-MB-231 breast
[24] = tested on: SN12C renal
[25] = tested on: MALME-3M melanoma
[26] = tested on: KM12 colon
[27] = tested on: 786-0 renal
[28] = tested on: SNB-19 CNS
[29] = tested on: HOP-92 NSCLC
[30] = tested on: OVCAR-3 ovarian
[31] = tested on: U251 glioblastoma
[32] = tested on: HT29 colon
[33] = tested on: MOLT-4 leukemia
[34] = tested on: NCI-H322M lung
[35] = tested on: MCF7 breast
[36] = tested on: UACC-257 melanoma
[37] = tested on: RXF 393 renal
[38] = tested on: SK-OV-3 ovarian
[39] = tested on: HCT-15 colon
[40] = tested on: NCI-H23 lung
[41] = tested on: NCI-H522 lung
[42] = tested on: UO-31 renal
[43] = tested on: OVCAR-4 ovarian
[44] = tested on: SW-620 colon
[45] = tested on: PC-3 prostate
[46] = tested on: CCRF-CEM leukemia
[47] = tested on: OVCAR-5 ovarian

CC(O)[C@H](NC(=O)N[C@@H](CC(N)=O)c1nc(N2CCNCC2)no1)C(=O)O (some centres undefined)
GI50 [1]: > 100 µM
TGI [1]: > 100 µM
GI50 [2]: > 100 µM
TGI [2]: > 100 µM
GI50 [3]: > 100 µM
TGI [3]: > 100 µM
GI50 [4]: > 100 µM
TGI [4]: > 100 µM
GI50 [5]: > 100 µM
TGI [5]: > 100 µM
GI50 [6]: > 100 µM
TGI [6]: > 100 µM
GI50 [7]: > 100 µM
TGI [7]: > 100 µM
GI50 [8]: > 100 µM
TGI [8]: > 100 µM
GI50 [9]: > 100 µM
TGI [9]: > 100 µM
GI50 [10]: > 100 µM
TGI [10]: > 100 µM
GI50 [11]: > 100 µM
TGI [11]: > 100 µM
GI50 [12]: > 100 µM
TGI [12]: > 100 µM
GI50 [13]: > 100 µM
TGI [13]: > 100 µM
GI50 [14]: > 100 µM
TGI [14]: > 100 µM
GI50 [15]: > 100 µM
TGI [15]: > 100 µM
GI50 [16]: > 100 µM
TGI [16]: > 100 µM
GI50 [17]: > 100 µM
TGI [17]: > 100 µM
GI50 [18]: > 100 µM
TGI [18]: > 100 µM
GI50 [19]: > 100 µM
TGI [19]: > 100 µM
GI50 [20]: > 100 µM
TGI [20]: > 100 µM
GI50 [21]: > 100 µM
TGI [21]: > 100 µM
GI50 [22]: > 100 µM
TGI [22]: > 100 µM
GI50 [23]: > 100 µM
TGI [23]: > 100 µM
GI50 [24]: > 100 µM
TGI [24]: > 100 µM
GI50 [25]: > 100 µM
TGI [25]: > 100 µM
GI50 [26]: > 100 µM
TGI [26]: > 100 µM
GI50 [27]: > 100 µM
TGI [27]: > 100 µM
GI50 [28]: > 100 µM
TGI [28]: > 100 µM
GI50 [29]: > 100 µM
TGI [29]: > 100 µM
GI50 [30]: > 100 µM
TGI [30]: > 100 µM
GI50 [31]: > 100 µM
TGI [31]: > 100 µM
GI50 [32]: > 100 µM
TGI [32]: > 100 µM
GI50 [33]: > 100 µM
TGI [33]: > 100 µM
GI50 [34]: > 100 µM
TGI [34]: > 100 µM
GI50 [35]: > 100 µM
TGI [35]: > 100 µM
GI50 [36]: > 100 µM
TGI [36]: > 100 µM
GI50 [37]: > 100 µM
TGI [37]: > 100 µM
GI50 [38]: > 100 µM
TGI [38]: > 100 µM
GI50 [39]: > 100 µM
TGI [39]: > 100 µM
GI50 [40]: > 100 µM
TGI [40]: > 100 µM
GI50 [41]: > 100 µM
TGI [41]: > 100 µM
GI50 [42]: > 100 µM
TGI [42]: > 100 µM
GI50 [43]: > 100 µM
TGI [43]: > 100 µM
GI50 [44]: > 100 µM
TGI [44]: > 100 µM
GI50 [45]: > 100 µM
TGI [45]: > 100 µM
GI50 [46]: > 100 µM
TGI [46]: > 100 µM
GI50 [47]: > 100 µM
TGI [47]: > 100 µM
